Molecular target: leukotriene B4 receptors (Cavia porcellus, UniProt H0VYV8)
Assay: biochemical
Format: binding, guinea-pig
Details: Table XIX; guinea-pig spleen membranes, tritium-labelled LTB4; read-out: IC50 Binding (Cheng)

Sequence of leukotriene B4 receptors (H0VYV8 1-348): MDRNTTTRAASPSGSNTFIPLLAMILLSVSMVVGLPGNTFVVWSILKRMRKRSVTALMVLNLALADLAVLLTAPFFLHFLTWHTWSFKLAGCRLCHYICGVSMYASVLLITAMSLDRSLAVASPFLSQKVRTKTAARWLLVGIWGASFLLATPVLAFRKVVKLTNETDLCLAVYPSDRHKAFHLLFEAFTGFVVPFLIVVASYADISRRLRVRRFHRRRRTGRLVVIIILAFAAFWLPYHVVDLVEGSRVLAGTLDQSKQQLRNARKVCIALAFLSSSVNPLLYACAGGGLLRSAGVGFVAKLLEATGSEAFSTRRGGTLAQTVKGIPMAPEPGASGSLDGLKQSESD

Q: For O=C(O)CCCCCCCSc1ncc(-c2ccccc2)c(-c2ccccc2)n1, which IC50 is on record?
A: The IC50 was 3000 nM.

Q: O=C(O)CCCCCOc1cc(-c2ccc([N+](=O)[O-])cc2)cc(-c2ccccc2)n1 [6-{[4-(4-nitrophenyl)-6-phenyl-2-pyridyl]oxy}hexanoic acid] was tested. Which IC50 did it give?
A: Its IC50 is 50 nM.

Q: How did the IC50 turn out when c1ccc(-c2cc(-c3ccc4c(c3)OCO4)cc(OCCCCCc3nnn[nH]3)n2)cc1 [5-{5-{[6-phenyl-4-(3,4-methylenedioxyphenyl)-2-pyridyl]oxy}pentyl}-1H-tetrazole] was run?
A: Its IC50 is 2 nM.

Q: With O=C(O)CCCCCCCOc1ncc(-c2ccccc2)c(-c2ccccc2)n1 [8-(4,5-diphenyl-2-pyrimidyloxy)octanoic acid] as the compound, how does the IC50 read?
A: The IC50 was 8500 nM.

Q: How did the IC50 turn out when O=C(O)CCCCCCCOc1ccc(-c2ccccc2)c(-c2ccccc2)n1 was run?
A: Its IC50 is 10000 nM.

Q: O=C(O)CCCCCOc1cc(-c2ccccc2Cl)cc(-c2ccccc2)n1 [6-{[4-(2-chlorophenyl)-6-phenyl-2-pyridyl]oxy}hexanoic acid] was tested. Which IC50 did it give?
A: The IC50 was 200 nM.

Q: O=C(O)CCCCCOc1cc(-c2ccc(Cl)cc2)c2ccccc2n1 [6-{[4-(4-chlorophenyl)-2-quinolyl]oxy}hexanoic acid] was tested. Which IC50 did it give?
A: Its IC50 is 30 nM.

Q: Which IC50 does the source give for Clc1ccc(-c2cc(OCCCCCc3nnn[nH]3)nc3ccccc23)cc1 [5-{5-{[4-(4-chlorophenyl)-2-quinolyl]oxy}pentyl}-[1H]-tetrazole] here?
A: The IC50 was 25 nM.

Q: For CN(C)c1ccc(-c2cc(OCCCCC(C)(C)C(=O)O)nc3ccccc23)cc1 [2,2-dimethyl-6-{[4-(4-dimethylaminophenyl)-2-quinolyl]oxy}hexanoic acid], which IC50 is on record?
A: Its IC50 is 30 nM.

Q: How did the IC50 turn out when CC(C)(CCCCOc1cc(-c2ccc(N)cc2)c2ccccc2n1)C(=O)O [2,2-dimethyl-6-{[4-(4-aminophenyl)-2-quinolyl]oxy}hexanoic acid] was run?
A: Its IC50 is 40 nM.

Q: How did the IC50 turn out when O=C(CCCOc1cc(-c2ccccc2)cc(-c2ccccc2)n1)Nc1ccccc1 [4-[(4,6-diphenyl-2-pyridyl)oxy]butanilide] was run?
A: The IC50 was > 1000 nM.

Q: With CC(CCCCOc1cc(-c2ccc(Cl)cc2)c2ccccc2n1)C(=O)O (centres unmarked) [2-methyl-6-{[4-(4-chlorophenyl)-2-quinolyl]oxy}hexanoic acid] as the compound, how does the IC50 read?
A: Its IC50 is 30 nM.

Q: How did the IC50 turn out when O=C(O)CCCCCOc1cc(-c2ccccc2)ccn1 [6-[(4-phenyl-2-pyridyl)oxy]hexanoic acid] was run?
A: Its IC50 is 900 nM.

Q: With COc1ccc(-c2cc(-c3ccccc3)cc(OCCCCCC(=O)O)n2)cc1 [6-{[6-(4-methoxyphenyl)-4-phenyl-2-pyridyl]oxy}hexanoic acid] as the compound, how does the IC50 read?
A: Its IC50 is 1000 nM.

Q: Which IC50 does the source give for O=C(O)CCCCCCc1cccc(Cc2ccccc2)c1 [7-(3-benzylphenyl)heptanoic acid, 7-(3-benzyl-phenyl)heptanoic acid] here?
A: The IC50 was 7000 nM.

Q: Cc1ccc(-c2cc(OCCCCC(C)(C)C(=O)O)nc3ccccc23)cc1 [2,2-dimethyl-6-{[4-(4-tolyl)-2-quinolyl]oxy}hexanoic acid] was tested. Which IC50 did it give?
A: The IC50 was 30 nM.

Q: How did the IC50 turn out when O=C(O)CCCCCOc1cc(-c2ccc(NC(=O)C(F)(F)F)cc2)cc(-c2ccccc2)n1 [6-{[4-(4-trifluoroacetamidophenyl)-6-phenyl-2-pyridyl]oxy}hexanoic acid] was run?
A: Its IC50 is 150 nM.

Q: Which IC50 does the source give for CNc1ccc(-c2cc(OCCCCC(C)(C)C(=O)O)nc(-c3ccccc3)c2)cc1 [6-{[4-(4-methylaminophenyl)-6-phenyl-2-pyridyl]oxy}-2,2-dimethylhexanoic acid] here?
A: Its IC50 is 8 nM.

Q: CC(C)(CCCCOc1cc(-c2ccc(F)cc2)c2ccccc2n1)C(=O)O [2,2-dimethyl-6-{[4-(4-fluorophenyl-2-quinolyl]oxy}hexanoic acid] was tested. Which IC50 did it give?
A: Its IC50 is 150 nM.

Q: For CCOC(=O)CCCCCOc1cc(-c2ccccc2)cc(-c2ccc(Cl)cc2)n1 [ethyl 6-{[6-(4-chlorophenyl)-4-phenyl-2-pyridyl]oxy}hexanoate], which IC50 is on record?
A: The IC50 was 5000 nM.

Q: With CC(C)(CCCCOc1cc(-c2cccc(Cl)c2)c2ccccc2n1)C(=O)O [2,2-dimethyl-6-{[4-(3-chlorophenyl)-2-quinolyl]oxy}hexanoic acid] as the compound, how does the IC50 read?
A: Its IC50 is 1100 nM.

Q: With CCC(CCCCOc1cc(-c2ccc(Cl)cc2)c2ccccc2n1)C(=O)O (centres unmarked) [2-ethyl-6-{[4-(4-chlorophenyl)-2-quinolyl]oxy}hexanoic acid] as the compound, how does the IC50 read?
A: Its IC50 is 200 nM.

Q: Cc1cccc(-c2cc(OCCCCCC(=O)O)nc(-c3ccccc3)c2)c1 [6-{[4-(3-methylphenyl)-6-phenyl-2-pyridyl]oxy}hexanoic acid] was tested. Which IC50 did it give?
A: Its IC50 is 15 nM.

Q: Which IC50 does the source give for Nc1cccc(-c2cc(OCCCCCC(=O)O)nc(-c3ccccc3)c2)c1 [6-{[4-(3-aminophenyl)-6-phenyl-2-pyridyl]oxy}hexanoic acid] here?
A: Its IC50 is 12 nM.

Q: CC(C)(CCCCOc1cc(-c2ccc(Cl)cc2)cc(-c2ccccc2)n1)C(=O)O [2,2-dimethyl-6-{[4-(4-chlorophenyl)-6-phenyl-2-pyridyl]oxy}hexanoic acid] was tested. Which IC50 did it give?
A: Its IC50 is 100 nM.

Q: Which IC50 does the source give for c1ccc(-c2cc(OCCCCCc3nnn[nH]3)nc3ccccc23)cc1 [5-{5-[(4-phenyl-2-quinolyl)oxy]pentyl}-[1H]-tetrazole] here?
A: Its IC50 is 500 nM.

Q: Which IC50 does the source give for O=C(O)CCCCC=Cc1cccc(Cc2ccccc2)c1 [7-(3-benzyl-phenyl)6-heptenoic acid, 7-(3-benzyl-phenyl)-6-heptenoic acid] here?
A: Its IC50 is 10000 nM.

Q: For CCC(C)(CCCCOc1cc(-c2ccccc2)c2ccccc2n1)C(=O)O (centres unmarked) [2-ethyl-2-methyl-6-[(4-phenyl-2-quinolyl)oxy]hexanoic acid], which IC50 is on record?
A: Its IC50 is 110 nM.

Q: How did the IC50 turn out when O=C(O)CNC(=O)CCCOc1cc(-c2ccccc2)cc(-c2ccccc2)n1 [N-[4-(4,6-diphenyl-2-pyridyloxy)butanoyl]glycine] was run?
A: Its IC50 is 16 nM.

Q: O=C(O)CCCCCOc1nc(-c2ccccc2)cc(-c2ccccc2)n1 [6-[(4,6-diphenyl-2-pyrimidyl)oxy]hexanoic acid] was tested. Which IC50 did it give?
A: Its IC50 is 150 nM.

Q: How did the IC50 turn out when O=C(O)CCCCCOc1cc(-c2ccc(NC(=O)c3ccccc3)cc2)cc(-c2ccccc2)n1 [6-{[4-(4-benzamidophenyl)-6-phenyl-2-pyridyl]oxy}hexanoic acid] was run?
A: The IC50 was 4000 nM.

Q: How did the IC50 turn out when CC(C)(CCCCOc1cc(-c2ccccc2)c2ccccc2n1)C(=O)O [2,2-dimethyl-6-[(4-phenyl-2-quinolyl)oxy]hexanoic acid] was run?
A: The IC50 was 150 nM.

Q: How did the IC50 turn out when O=C(O)CCCOc1cc(-c2ccccc2)cc(-c2ccccc2)n1 [4-[(4,6-diphenyl-2-pyridyl)oxy]butanoic acid] was run?
A: Its IC50 is 300 nM.

Q: How did the IC50 turn out when CC(C)(CCCCCCSc1ncc(-c2ccccc2)c(-c2ccccc2)n1)C(=O)O [2,2-dimethyl-8-(4,5-diphenyl-2-pyrimidylthio)octanoic acid] was run?
A: Its IC50 is 2500 nM.

Q: For O=C(O)CCCCCSc1ncc(-c2ccccc2)c(-c2ccccc2)n1 [6-(4,5-diphenyl-2-pyrimidylthio)hexanoic acid], which IC50 is on record?
A: Its IC50 is 8000 nM.

Q: CC(CCCCOc1cc(-c2ccc3c(c2)OCO3)cc(-c2ccccc2Cl)n1)C(=O)O (centres unmarked) [6-{[6-(2-chlorophenyl)-4-(3,4-methylenedioxyphenyl)-2-pyridyl]oxy}-2-methylhexanoic acid] was tested. Which IC50 did it give?
A: The IC50 was 2 nM.

Q: COc1ccc(-c2cnc(OCCCCCC(=O)O)nc2-c2ccc(OC)cc2)cc1 [6-[4,5-bis-(4-methoxyphenyl)-2-pyrimidyloxy]hexanoic acid] was tested. Which IC50 did it give?
A: Its IC50 is 8000 nM.

Q: For COc1ccc(-c2cc(-c3ccc(Cl)cc3)cc(OCCCCCC(=O)O)n2)cc1 [6-{[4-(4-chlorophenyl)-6-(4-methoxyphenyl)-2-pyridyl]oxy}hexanoic acid], which IC50 is on record?
A: Its IC50 is 1700 nM.

Q: How did the IC50 turn out when Cc1cc(-c2ccccc2)cc(OCCCCCC(=O)O)n1 [6-[(6-methyl-4-phenyl-2-pyridyl)oxy]hexanoic acid] was run?
A: The IC50 was 200 nM.

Q: With O=C(O)CCCCCCOc1cc(-c2ccccc2)c2ccccc2n1 [7-[(4-phenyl-2-quinolyl)oxy]heptanoic acid] as the compound, how does the IC50 read?
A: Its IC50 is 1800 nM.

Q: With CC(C)(CCCCOc1cc(-c2ccc(Cl)c(Cl)c2)c2ccccc2n1)C(=O)O [2,2-dimethyl-6-{[4-(3,4-dichlorophenyl)-2-quinolyl]oxy}hexanoic acid] as the compound, how does the IC50 read?
A: Its IC50 is 3500 nM.

Q: With CC(C)(CCCCOc1cc(-c2ccccc2)c2cc(Cl)ccc2n1)C(=O)O [2,2-dimethyl-6-[(6-chloro-4-phenyl-2-quinolyl)oxy}hexanoic acid] as the compound, how does the IC50 read?
A: The IC50 was 2500 nM.

Q: CC(C)(CCCCOc1cc(-c2ccc(Cl)cc2)c2ccccc2n1)C(=O)O [2,2-dimethyl-6-{[4-(4-chlorophenyl)-2-quinolyl]oxy}hexanoic acid] was tested. Which IC50 did it give?
A: The IC50 was 15 nM.

Q: CC(C)(CCCCOc1cc(-c2ccccc2)c2ccccc2n1)c1nnn[nH]1 [5-{1,1-dimethyl-5-[(4-phenyl-2-quinolyl)oxy]pentyl}-[1H]-tetrazole] was tested. Which IC50 did it give?
A: Its IC50 is 400 nM.

Q: For “6-[(6-cyclopropyl-5-phenyl-2-pyridyl)oxy]hexanoic acid”, which IC50 is on record?
A: The IC50 was 40 nM.

Same assay, conditions: read-out: Binding (Cheng) % Inhibition at 10 μM

Q: Which inhibition at 10 µM does the source give for COc1ccccc1-c1cc(OCCCCC(C)(C)C(=O)O)nc2ccccc12 [6-{[4-(2-methoxyphenyl)-2-quinolyl]oxy}-2,2-dimethylhexanoic acid] here?
A: Its inhibition at 10 µM is 36%.

Q: O=C(O)CCCCCOc1ncc(-c2ccc(Cl)cc2)c(-c2ccc(Cl)cc2)n1 [6-[4,5-bis-(4-chlorophenyl)-2-pyrimidyloxy]hexanoic acid] was tested. Which inhibition at 10 µM did it give?
A: Its inhibition at 10 µM is 48%.

Q: For COc1cc(OC)cc(-c2cc(OCCCCCC(=O)O)nc(-c3ccccc3)c2)c1 [6-{[6-phenyl-4-(3,5-dimethoxyphenyl)-2-pyridyl]oxy}hexanoic acid], which inhibition at 10 µM is on record?
A: Its inhibition at 10 µM is 50%.

Q: For CC(C)(CCCCSc1cc(-c2ccccc2)c2ccccc2n1)C(=O)O [2,2-dimethyl-6-[(4-phenyl-2-quinolyl)thio]hexanoic acid], which inhibition at 10 µM is on record?
A: Its inhibition at 10 µM is 33%.

Q: How did the inhibition at 10 µM turn out when COc1ccc(-c2ccc(OCCCCCC(=O)O)nc2-c2ccc(OC)cc2)cc1 [6-{[5,6-bis-(4-methoxyphenyl)-2-pyridyl]oxy}hexanoic acid] was run?
A: The inhibition at 10 µM was 37%.

Q: With O=C(O)CCCCCCCSc1cc(-c2ccccc2)c2ccccc2n1 [sodium 8-[(4-phenyl-2-quinolyl)thio]octanoate] as the compound, how does the inhibition at 10 µM read?
A: The inhibition at 10 µM was 31%.

Q: O=C(CCCCCOc1cc(-c2ccccc2)c2ccccc2n1)N1CCCC1 [1-[6-(4-phenyl-2-quinolyloxy)hexanoyl]pyrrolidine] was tested. Which inhibition at 10 µM did it give?
A: Its inhibition at 10 µM is 12%.

Q: Which inhibition at 10 µM does the source give for O=C(O)CCCCCOc1ncc(-c2ccccc2)c(-c2ccccc2)n1 [6-(4,5-diphenyl-2-pyrimidyloxy)hexanoic acid] here?
A: The inhibition at 10 µM was 35%.

Q: How did the inhibition at 10 µM turn out when O=C(O)CCCCCOc1ccc(-c2ccccc2)c(-c2ccccc2)n1 [6-[(5,6-diphenyl-2-pyridyl)oxy]hexanoic acid] was run?
A: Its inhibition at 10 µM is 15%.

Q: For O=C(O)CCCCCOc1cc(-c2ccc(C(=O)O)cc2)cc(-c2ccccc2)n1 [6-{[6-phenyl-4-(4-carboxyphenyl)-2-pyridyl]oxy}hexanoic acid], which inhibition at 10 µM is on record?
A: The inhibition at 10 µM was 32%.

Q: With COc1ccc2nc(OCCCCCC(=O)O)cc(-c3ccccc3)c2c1 [6-[(6-methoxy-4-phenyl-2-quinolyl)oxy]hexanoic acid] as the compound, how does the inhibition at 10 µM read?
A: The inhibition at 10 µM was 30%.
